The target in one data set is T1, ROCK2 (Homo sapiens, UniProt O75116).
T1 construct: purchased Upstate/Chemicon 14-451
Description: Rho kinase inhibition assay (IMAP fluorescence polarization), ROCK2.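 Also: kinase reaction started with 10 µM ATP and run 60 min at room temperature, then phosphorylated substrate captured on IMAP beads for 30 min and fluorescence polarization read in mP.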 The format is biochemical.

In the next data set the target is T2, ROCK1 (Homo sapiens, UniProt Q13464).
T2 construct: purchased Upstate/Chemicon 14-601
T2 sequence (Q13464 17-535 limits assumed): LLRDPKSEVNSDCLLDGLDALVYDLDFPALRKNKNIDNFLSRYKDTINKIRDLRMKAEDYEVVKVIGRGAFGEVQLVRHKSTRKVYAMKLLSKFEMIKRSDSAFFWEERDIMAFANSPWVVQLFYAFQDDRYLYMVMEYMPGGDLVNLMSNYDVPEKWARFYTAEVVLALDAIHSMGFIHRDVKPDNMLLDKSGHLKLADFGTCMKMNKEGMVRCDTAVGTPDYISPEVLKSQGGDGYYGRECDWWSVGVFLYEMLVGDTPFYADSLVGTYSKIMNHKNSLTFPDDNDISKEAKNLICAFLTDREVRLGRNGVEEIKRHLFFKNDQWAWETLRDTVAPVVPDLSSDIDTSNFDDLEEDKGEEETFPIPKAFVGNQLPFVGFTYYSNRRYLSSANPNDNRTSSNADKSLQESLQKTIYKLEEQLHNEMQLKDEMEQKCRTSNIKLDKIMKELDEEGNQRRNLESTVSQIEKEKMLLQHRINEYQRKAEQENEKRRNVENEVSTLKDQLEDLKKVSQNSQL
Nature of the data set: Rho kinase inhibition assay (IMAP fluorescence polarization), ROCK1.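 Also: kinase reaction run 60 min at room temperature, then phosphorylated substrate captured on IMAP beads for 30 min, with fluorescence polarization read in mP.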 The format is biochemical.

Data set [1] can be described thus: Compound plasma concentrations in unsensitized mice at 15 min post administration. The format is in vivo. The following applies: mouse, 15 μmol/kg; mean compound plasma concentration in mice at 15 minutes post oral administration; read-out: Mouse Oral PK.
Description: Additionally, compound concentrations were determined in the plasma and lungs of male, ovalbumin-sensitized, Balb/c mice from a murine model of asthma. Test compounds were formulated in water or 1% polysorbate 80 and dosed at 15 μmol/kg for intraperitoneal (IP) or oral (PO) administration or formulated for intratracheal (IT) administration and dosed at 5 μmol/kg, which directly targets the lungs. Following completion of the in vivo study, mice were euthanized and blood and plasma collected approximately 2.5-3 hours post administration of test compound for bronchodialator (BD) studies and 24 hours post administration for anti-inflamatory (AI) studies. Lungs were homogenized in Matrix A lysing tubes using a FastPrep 24 tissue and cell homogenizer (MP Biomedicals, Solon, Ohio). Both plasma samples and lung extracts were assayed for compound concentrations using an on-line, solid phase extraction LC/MS/MS system.
For the next data set, the target named is T3, p70S6K human enzyme (Homo sapiens, UniProt P23443, T412E).
T3 construct: purchased Upstate Chemicon 14-486
T3 sequence (P23443 1-421 T412E limits assumed): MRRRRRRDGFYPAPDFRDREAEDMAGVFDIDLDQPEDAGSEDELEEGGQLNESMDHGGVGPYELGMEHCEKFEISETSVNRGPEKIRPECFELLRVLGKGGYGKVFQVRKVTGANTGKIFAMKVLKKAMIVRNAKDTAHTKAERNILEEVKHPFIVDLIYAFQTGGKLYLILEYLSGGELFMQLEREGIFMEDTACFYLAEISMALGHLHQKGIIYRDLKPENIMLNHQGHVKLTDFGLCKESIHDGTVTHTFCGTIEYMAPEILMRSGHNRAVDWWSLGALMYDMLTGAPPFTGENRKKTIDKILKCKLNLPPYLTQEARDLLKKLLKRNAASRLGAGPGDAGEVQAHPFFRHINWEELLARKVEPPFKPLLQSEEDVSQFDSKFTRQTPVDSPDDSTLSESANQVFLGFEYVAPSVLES
Description: p70S6K inhibition assay (IMAP FP).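 Also: kinase reaction run at room temperature, phosphorylated substrate captured on IMAP beads and read as fluorescence polarization in mP, IC50 then converted to Ki.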 The format is biochemical. The following applies: 30 μM ATP; Ki=IC50/(1+([ATP Challenge]/EC50 ATP)); read-out: p70S6K Ki, Avg.

A further data set concerns the target T4, Akt3 human enzyme (Homo sapiens, UniProt Q9Y243).
T4 construct: purchased Upstate Chemicon 14-502
Description: Akt3 inhibition assay (IMAP FP).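 Also: kinase reaction run 60 min at room temperature after 30 µM ATP start, phosphorylated substrate captured on IMAP beads and read as fluorescence polarization (mP).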 The format is biochemical. Particulars: 30 μM ATP; Ki=IC50/(1+([ATP Challenge]/EC50 ATP)); read-out: Akt3 Ki, Avg.

Setting [2] is: 10 μM ATP, read-out: ROCK2 Ki, Avg.

Where two headings read alike, the source gives them in different places.

T4 sequence (Q9Y243 whole entry): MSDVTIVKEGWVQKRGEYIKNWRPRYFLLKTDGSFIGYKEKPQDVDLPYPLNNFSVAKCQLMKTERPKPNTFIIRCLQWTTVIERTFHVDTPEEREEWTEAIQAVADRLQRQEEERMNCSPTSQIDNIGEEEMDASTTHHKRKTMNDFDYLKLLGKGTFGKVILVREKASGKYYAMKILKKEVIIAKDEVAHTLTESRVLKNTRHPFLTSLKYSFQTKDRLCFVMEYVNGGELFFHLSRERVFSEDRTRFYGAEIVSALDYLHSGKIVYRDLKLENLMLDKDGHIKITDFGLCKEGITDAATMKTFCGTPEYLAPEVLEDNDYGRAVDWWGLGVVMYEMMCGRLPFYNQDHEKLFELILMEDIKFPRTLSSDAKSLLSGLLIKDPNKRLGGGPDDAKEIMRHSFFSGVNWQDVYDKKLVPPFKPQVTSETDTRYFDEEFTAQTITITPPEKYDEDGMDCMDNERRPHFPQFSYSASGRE
T1 sequence (O75116 11-552 limits assumed): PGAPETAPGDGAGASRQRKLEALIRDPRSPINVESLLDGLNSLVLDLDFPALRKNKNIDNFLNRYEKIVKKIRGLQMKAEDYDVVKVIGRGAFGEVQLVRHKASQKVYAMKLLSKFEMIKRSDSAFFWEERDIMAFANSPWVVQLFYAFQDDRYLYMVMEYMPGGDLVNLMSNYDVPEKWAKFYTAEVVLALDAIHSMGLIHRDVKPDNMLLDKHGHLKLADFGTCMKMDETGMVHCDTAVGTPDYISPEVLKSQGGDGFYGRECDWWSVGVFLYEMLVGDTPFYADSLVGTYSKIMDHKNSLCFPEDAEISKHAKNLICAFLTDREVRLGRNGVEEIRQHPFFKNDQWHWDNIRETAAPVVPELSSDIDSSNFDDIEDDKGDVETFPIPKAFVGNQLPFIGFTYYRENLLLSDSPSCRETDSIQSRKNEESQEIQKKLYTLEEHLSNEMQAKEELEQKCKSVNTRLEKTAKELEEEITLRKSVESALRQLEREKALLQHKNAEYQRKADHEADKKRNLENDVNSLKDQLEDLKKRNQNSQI
Description for ROCK1: (§1) Following the pre-incubation, 10 μM ATP was added to initiate the reaction. After 60 minutes at room temperature, Molecular Devices IMAP™ binding solution was added to bind phosphorylated substrate. After 30 minutes of incubation in the presence of the IMAP™ beads, the fluorescence polarization was read and the ratio was reported as mP. IC50 values for compounds and EC50 values for ATP were calculated using the Prism software from Graphpad.
Description for ROCK2: as §1
Description for p70S6K human enzyme: Inhibition of Akt3 and p70S6K activity was determined using the IMAP™ FP Progressive Binding Kit (Molecular Devices product number R8127). […] Following the pre-incubation, 30 μM ATP was added to initiate the reaction. After 60 minutes at RT, Molecular Devices IMAP™ binding solution was added to bind phosphorylated substrate. After 30 minutes of incubation in the presence of the IMAP™ beads the fluorescence polarization was read and the ratio was reported as mP. IC50 results were calculated using the Prism software from Graphpad. The Ki values were determined according to the following formula: Ki=IC50/(1+([ATP Challenge]/EC50 ATP)).

Regarding `Cc1ccc(S(=O)(=O)Nc2cc(CN3CCC[C@@H](Nc4ccc5[nH]ncc5c4)C3)ccc2C)cc1` [Compound 1.260, (R)-N-(5-((3-(1H-indazol-5-ylamino)piperidin-1-yl)methyl)-2-methylphenyl)-4-methylbenzenesulfonamide], the Ki is 7.1 nM on ROCK2 (setting [2]); 7.1 nM at ROCK2 (average Ki, read-out: ROCK2 Ki); 70.9 nM on ROCK1 (Avg, 10 μM ATP); 70.9 nM on ROCK1 (average Ki). For the same molecule, the concentration at 15 min in data set [1] stood at 291 nM.
For `Oc1cccc(CN2CC[C@@H](Nc3cccc4cnccc34)C2)c1` [Compound 2.061, (R)-3-((3-(isoquinolin-5-ylamino)pyrrolidin-1-yl)methyl)phenol], the Ki was 1.8 nM on ROCK2 (setting [2]); 1.8 nM at ROCK2 (average Ki, read-out: ROCK2 Ki); 10.5 nM on ROCK1 (Avg, 10 μM ATP); 10.5 nM on ROCK1 (average Ki). Moreover, in data set [1], the concentration at 15 min was 73 nM.
Turning to `c1cc(N[C@@H]2CCN(Cc3ccc4cc[nH]c4c3)C2)c2ccncc2c1` [Compound 2.057, (R)-N-(1-((1H-indol-6-yl)methyl)pyrrolidin-3-yl)isoquinolin-5-amine], the Ki at ROCK2 (setting [2]) is 3.7 nM; on ROCK2 (average Ki, read-out: ROCK2 Ki), 3.7 nM; on ROCK1 (Avg, 10 μM ATP) it was 6.2 nM; on ROCK1 (average Ki), 6.2 nM. Further, the concentration at 15 min in data set [1] was determined as 431 nM.
With `CCS(=O)(=O)Nc1cc(CN2CCC[C@@H](Nc3ccc4[nH]ncc4c3)C2)ccc1C` [Compound 1.259, (R)-N-(5-((3-(1H-indazol-5-ylamino)piperidin-1-yl)methyl)-2-methylphenyl)ethanesulfonamide], the Ki on ROCK2 (setting [2]) was determined as 2.1 nM; at ROCK2 (average Ki, read-out: ROCK2 Ki), 2.1 nM; on ROCK1 (Avg, 10 μM ATP) it was 19.5 nM; at ROCK1 (average Ki) it was 19.5 nM. For the same molecule, the concentration at 15 min in data set [1] was 264 nM.
Turning to `C#Cc1cccc(CN2CCC[C@@H](Nc3ccc4[nH]ncc4c3)C2)c1` [Compound 1.193, (R)-N-(1-(3-ethynylbenzyl)piperidin-3-yl)-1H-indazol-5-amine], the Ki at ROCK2 (setting [2]) turned out to be 14.8 nM; on ROCK2 (average Ki, read-out: ROCK2 Ki) it was 14.8 nM; on ROCK1 (Avg, 10 μM ATP), 64.9 nM; on ROCK1 (average Ki) it was 64.9 nM. In addition, in data set [1], the concentration at 15 min came out at 55 nM.
On to `Fc1ccc(CN2CCC[C@H](Nc3ccc4[nH]ncc4c3)C2)cc1F` [Compound 1.072, (S)-N-(1-(3,4-difluorobenzyl)piperidin-3-yl)-1H-indazol-5-amine], for which the Ki on ROCK2 (setting [2]) stood at 5.6 nM; at p70S6K human enzyme it was 1130 nM; at ROCK1 (Avg, 10 μM ATP), 33.7 nM; at Akt3 human enzyme, 4750 nM.
Consider `Fc1ccc(CN2CCC[C@@H](Nc3ccc4[nH]ncc4c3)C2)cc1` [Compound 1.146, (R)-N-(1-(4-fluorobenzyl)piperidin-3-yl)-1H-indazol-5-amine], for which the inhibition constant Ki at ROCK2 (setting [2]) came to 10.7 nM; at p70S6K human enzyme, 742 nM; on ROCK1 (Avg, 10 μM ATP), 39.8 nM; on Akt3 human enzyme, 205 nM.
For the molecule `c1ccc(CN2CCC[C@@H](Nc3ccc4[nH]ncc4c3)C2)cc1` [Compound 1.110, (R)-N-(1-benzylpiperidin-3-yl)-1H-indazol-5-amine], the inhibitory constant (Ki) was 11.2 nM at ROCK2 (setting [2]); 1300 nM at p70S6K human enzyme; 59 nM at ROCK1 (Avg, 10 μM ATP); 463 nM at Akt3 human enzyme.
For `CCc1ccc(CN2CCC[C@H](Nc3ccc4[nH]ncc4c3)C2)cc1` [Compound 1.154, (S)-N-(1-(4-ethylbenzyl)piperidin-3-yl)-1H-indazol-5-amine], in that order: 6.6 nM, 1130 nM, 52.7 nM and 4950 nM.
On to `Brc1cccc(CN2CCC[C@H](Nc3ccc4[nH]ncc4c3)C2)c1` [Compound 1.183, (S)-N-(1-(3-bromobenzyl)piperidin-3-yl)-1H-indazol-5-amine], for which the inhibition constant (Ki) at ROCK2 (setting [2]) amounted to 16.8 nM; at p70S6K human enzyme it was 2480 nM; at ROCK1 (Avg, 10 μM ATP) it was 165 nM; on Akt3 human enzyme it was 9010 nM.
On to `c1ccc(CN2CCC[C@H](Nc3ccc4[nH]ncc4c3)C2)cc1` [Compound 1.227, (S)-N-(1-benzylpiperidin-3-yl)-1H-indazol-5-amine], for which the Ki was determined as 5.3 nM at ROCK2 (setting [2]); 1580 nM at p70S6K human enzyme; 47.5 nM on ROCK1 (Avg, 10 μM ATP); 3480 nM on Akt3 human enzyme.
Turning to `NC(=O)Cn1ccc2ccc(CN3CCC[C@@H](Nc4ccc5[nH]ncc5c4)C3)cc21` [Compound 1.106, (R)-2-(6-((3-(1H-indazol-5-ylamino)piperidin-1-yl)methyl)-1H-indol-1-yl)acetamide], the inhibitory constant (Ki) amounted to 15.1 nM on ROCK2 (setting [2]); 1330 nM on p70S6K human enzyme; 223 nM at ROCK1 (Avg, 10 μM ATP); 3910 nM on Akt3 human enzyme.
For `c1cc2cc(CN3CCC[C@@H](Nc4ccc5[nH]ncc5c4)C3)ccc2[nH]1` [Compound 1.143, (R)-N-(1-((1H-indol-5-yl)methyl)piperidin-3-yl)-1H-indazol-5-amine], in that order: 12.6 nM, 538 nM, 49.7 nM and 707 nM.
`Oc1cccc(CN2CCC[C@@H](Nc3ccc4[nH]ncc4c3)C2)c1` [Compound 1.145, (R)-3-((3-(1H-indazol-5-ylamino)piperidin-1-yl)methyl)phenol]: the Ki is 6.4 nM at ROCK2 (setting [2]); 2300 nM on p70S6K human enzyme; 35 nM at ROCK1 (Avg, 10 μM ATP); 1190 nM on Akt3 human enzyme.
For the molecule `c1cc2c(cc1CN1CCC[C@@H](Nc3ccc4[nH]ncc4c3)C1)CCO2` [Compound 1.246, (R)-N-(1-((2,3-dihydrobenzofuran-5-yl)methyl)piperidin-3-yl)-1H-indazol-5-amine], the Ki on ROCK2 (setting [2]) was found to be 11.2 nM; on p70S6K human enzyme, 1880 nM; at ROCK1 (Avg, 10 μM ATP), 92.1 nM; on Akt3 human enzyme, 1100 nM.
For the molecule `Clc1cccc(CN2CCC[C@H](Nc3ccc4[nH]ncc4c3)C2)c1` [Compound 1.170, (S)-N-(1-(3-chlorobenzyl)piperidin-3-yl)-1H-indazol-5-amine], the inhibition constant Ki at ROCK2 (setting [2]) is 12.5 nM; at p70S6K human enzyme it was 2050 nM; at ROCK1 (Avg, 10 μM ATP) it was 80 nM; at Akt3 human enzyme, 7810 nM.
In the case of `C=Cc1ccc(CN2CCC[C@H](Nc3ccc4[nH]ncc4c3)C2)cc1` [Compound 1.229, (S)-N-(1-(4-vinylbenzyl)piperidin-3-yl)-1H-indazol-5-amine], the inhibition constant (Ki) at ROCK2 (setting [2]) is 18.4 nM; at p70S6K human enzyme, 3130 nM; at ROCK1 (Avg, 10 μM ATP), 121 nM; on Akt3 human enzyme, 24600 nM.
`FC(F)(F)c1ccc(CN2CCC[C@@H](Nc3ccc4[nH]ncc4c3)C2)cc1` [Compound 1.178, (R)-N-(1-(4-(trifluoromethyl)benzyl)piperidin-3-yl)-1H-indazol-5-amine]: the Ki on ROCK2 (setting [2]) stood at 24.9 nM; at p70S6K human enzyme, 1120 nM; on ROCK1 (Avg, 10 μM ATP), 138 nM; at Akt3 human enzyme, 711 nM.
As to `O=C(COc1cccc(CN2CCC[C@@H](Nc3ccc4[nH]ncc4c3)C2)c1)N1CCOCC1` [Compound 1.127, (R)-2-(3-((3-(1H-indazol-5-ylamino)piperidin-1-yl)methyl)phenoxy)-1-morpholinoethanone], the Ki at ROCK2 (setting [2]) amounted to 11.2 nM; at p70S6K human enzyme, 2070 nM; at ROCK1 (Avg, 10 μM ATP) it was 96.6 nM; at Akt3 human enzyme, 975 nM.
Take `C=Cc1ccc(CN2CCC[C@@H](Nc3ccc4[nH]ncc4c3)C2)cc1` [Compound 1.208, (R)-N-(1-(4-vinylbenzyl)piperidin-3-yl)-1H-indazol-5-amine]: the inhibitory constant (Ki) was found to be 12.9 nM on ROCK2 (setting [2]); 721 nM at p70S6K human enzyme; 54.2 nM on ROCK1 (Avg, 10 μM ATP); 346 nM on Akt3 human enzyme.
